Assay results as given in the NIST ThermoML archive (doi:10.1016/j.fluid.2016.02.004).
Numbers after ± are expanded uncertainties.

Assay: activity coefficient (dimensionless); of the first substance listed, at infinite dilution; xn = mol fraction of the nth substance listed
Conditions: Liquid, Chromatography, x1 = 0

| Compound | activity coefficient (318.15 K) | activity coefficient (328.15 K) | activity coefficient (338.15 K) | activity coefficient (348.15 K) | activity coefficient (358.15 K) | activity coefficient (368.15 K) |
| --- | --- | --- | --- | --- | --- | --- |
| Cc1ccccc1C [1,2-dimethylbenzene] + CCCCn1cc[n+](C)c1.N#CN=C=[N-] | 3.82 ± 0.26 | 3.97 ± 0.27 | 4.12 ± 0.28 | 4.27 ± 0.29 | 4.42 ± 0.3 | 4.57 ± 0.31 |
| Cc1cccc(C)c1 [1,3-dimethylbenzene] + CCCCn1cc[n+](C)c1.N#CN=C=[N-] | 4.65 ± 0.32 | 4.82 ± 0.33 | 5.03 ± 0.34 | 5.19 ± 0.35 | 5.38 ± 0.37 | 5.56 ± 0.38 |
| Cc1ccc(C)cc1 [1,4-dimethylbenzene] + CCCCn1cc[n+](C)c1.N#CN=C=[N-] | 4.44 ± 0.3 | 4.62 ± 0.31 | 4.82 ± 0.33 | 5 ± 0.34 | 5.18 ± 0.35 | 5.37 ± 0.37 |
| C1COCCO1 [1,4-dioxane] + CCCCn1cc[n+](C)c1.N#CN=C=[N-] | 1.06 ± 0.07 | 1.13 ± 0.07 | 1.21 ± 0.08 | 1.28 ± 0.08 | 1.36 ± 0.09 | 1.43 ± 0.09 |
| C=CCCCCCCCC [1-decene] + CCCCn1cc[n+](C)c1.N#CN=C=[N-] | 134 ± 9 | 128 ± 9 | 123 ± 8 | 119 ± 8 | 115 ± 8 | 111 ± 8 |
| C=CCCCCC [1-heptene] + CCCCn1cc[n+](C)c1.N#CN=C=[N-] | 39 ± 2.7 | 38.5 ± 2.6 | 38.1 ± 2.6 | 37.7 ± 2.6 | 37.3 ± 2.6 | 37 ± 2.5 |
| C#CCCCCC [1-heptyne] + CCCCn1cc[n+](C)c1.N#CN=C=[N-] | 8.24 ± 0.56 | 8.61 ± 0.59 | 9.02 ± 0.62 | 9.42 ± 0.64 | 9.77 ± 0.67 | 10.2 ± 0.7 |
| C#CCCCC [1-hexyne] + CCCCn1cc[n+](C)c1.N#CN=C=[N-] | 5.43 ± 0.37 | 5.76 ± 0.39 | 6.12 ± 0.42 | 6.49 ± 0.44 | 6.85 ± 0.47 | 7.23 ± 0.49 |
| CCC[N+](=O)[O-] [1-nitropropane] + CCCCn1cc[n+](C)c1.N#CN=C=[N-] | 1.26 ± 0.08 | 1.31 ± 0.09 | 1.36 ± 0.09 | 1.41 ± 0.09 | 1.45 ± 0.1 | 1.5 ± 0.1 |
| C#CCCCCCC [1-octyne] + CCCCn1cc[n+](C)c1.N#CN=C=[N-] | 12.5 ± 0.9 | 13 ± 0.9 | 13.4 ± 0.9 | 13.9 ± 1 | 14.4 ± 1 | 14.8 ± 1 |
| C=CCCC [1-pentene] + CCCCn1cc[n+](C)c1.N#CN=C=[N-] | 17.3 ± 1.2 | 17.3 ± 1.2 | 17.3 ± 1.2 | 17.3 ± 1.2 | 17.3 ± 1.2 | 17.3 ± 1.2 |
| C#CCCC [1-pentyne] + CCCCn1cc[n+](C)c1.N#CN=C=[N-] | 3.7 ± 0.3 | 3.94 ± 0.27 | 4.16 ± 0.28 | 4.38 ± 0.3 | 4.6 ± 0.3 | 4.84 ± 0.33 |
| CC(C)CC(C)(C)C [2,2,4-trimethylpentane] + CCCCn1cc[n+](C)c1.N#CN=C=[N-] | 111 ± 8 | 105 ± 7 | 101 ± 7 | 96.5 ± 6.6 | 92.8 ± 6.4 | 89.2 ± 6.1 |
| CCC(C)(C)C [2,2-dimethylbutane] + CCCCn1cc[n+](C)c1.N#CN=C=[N-] | 53.6 ± 3.7 | 51.7 ± 3.5 | 50.1 ± 3.4 | 48.7 ± 3.3 | 47.4 ± 3.2 | 46 ± 3.1 |
| CCOC(C)(C)C [2-ethoxy-2-methylpropane] + CCCCn1cc[n+](C)c1.N#CN=C=[N-] | 18.1 ± 1.2 | 18.4 ± 1.3 | 18.7 ± 1.3 | 19.1 ± 1.3 | 19.3 ± 1.3 | 19.7 ± 1.3 |
| CCC(C)(C)OC [2-methoxy-2-methylbutane] + CCCCn1cc[n+](C)c1.N#CN=C=[N-] | 10.7 ± 0.7 | 11.1 ± 0.8 | 11.5 ± 0.8 | 11.8 ± 0.8 | 12.2 ± 0.8 | 12.5 ± 0.9 |
| COC(C)(C)C [2-methoxy-2-methylpropane] + CCCCn1cc[n+](C)c1.N#CN=C=[N-] | 7.13 ± 0.49 | 7.47 ± 0.51 | 7.8 ± 0.53 | 8.14 ± 0.56 | 8.46 ± 0.58 | 8.8 ± 0.6 |
| CC(C)CO [2-methyl-1-propanol] + CCCCn1cc[n+](C)c1.N#CN=C=[N-] | 1.08 ± 0.07 | 1.08 ± 0.07 | 1.09 ± 0.07 | 1.09 ± 0.07 | 1.09 ± 0.07 | 1.09 ± 0.07 |

| Compound | activity coefficient (318.15 K) | activity coefficient (328.15 K) | activity coefficient (338.15 K) | activity coefficient (348.15 K) | activity coefficient (358.15 K) | activity coefficient (368.15 K) |
| --- | --- | --- | --- | --- | --- | --- |
| CC(C)(C)O [2-methylpropan-2-ol] + CCCCn1cc[n+](C)c1.N#CN=C=[N-] | 1.11 ± 0.07 | 1.14 ± 0.07 | 1.16 ± 0.07 | 1.19 ± 0.08 | 1.21 ± 0.08 | 1.24 ± 0.08 |
| CCC(C)CC [3-methylpentane] + CCCCn1cc[n+](C)c1.N#CN=C=[N-] | 53.7 ± 3.7 | 51.7 ± 3.5 | 50 ± 3.4 | 48.4 ± 3.3 | 47.1 ± 3.2 | 45.6 ± 3.1 |
| C=C(C)c1ccccc1 [(1-methylethenyl)benzene] + CCCCn1cc[n+](C)c1.N#CN=C=[N-] | 3.3 ± 0.2 | 3.53 ± 0.24 | 3.79 ± 0.26 | 4.02 ± 0.27 | 4.26 ± 0.29 | 4.51 ± 0.31 |
| CC(C)=O [acetone] + CCCCn1cc[n+](C)c1.N#CN=C=[N-] | 1 ± 0.06 | 1.05 ± 0.07 | 1.11 ± 0.07 | 1.16 ± 0.07 | 1.22 ± 0.08 | 1.27 ± 0.08 |
| CC#N [acetonitrile] + CCCCn1cc[n+](C)c1.N#CN=C=[N-] | 0.781 ± 0.051 | 0.813 ± 0.053 | 0.844 ± 0.054 | 0.876 ± 0.056 | 0.904 ± 0.057 | 0.934 ± 0.059 |
| c1ccccc1 [benzene] + CCCCn1cc[n+](C)c1.N#CN=C=[N-] | 1.87 ± 0.13 | 1.95 ± 0.13 | 2.03 ± 0.14 | 2.11 ± 0.14 | 2.19 ± 0.15 | 2.28 ± 0.16 |
| CCCCO [butan-1-ol] + CCCCn1cc[n+](C)c1.N#CN=C=[N-] | 1.1 ± 0.07 | 1.11 ± 0.07 | 1.12 ± 0.07 | 1.13 ± 0.07 | 1.14 ± 0.07 | 1.15 ± 0.07 |
| CCC(C)O (stereo unspecified) [butan-2-ol] + CCCCn1cc[n+](C)c1.N#CN=C=[N-] | 1.13 ± 0.07 | 1.14 ± 0.07 | 1.16 ± 0.07 | 1.17 ± 0.07 | 1.18 ± 0.08 | 1.19 ± 0.08 |
| CCCC=O [butanal] + CCCCn1cc[n+](C)c1.N#CN=C=[N-] | 1.61 ± 0.11 | 1.67 ± 0.11 | 1.74 ± 0.12 | 1.8 ± 0.12 | 1.87 ± 0.13 | 1.93 ± 0.13 |
| C1CCCCCC1 [cycloheptane] + CCCCn1cc[n+](C)c1.N#CN=C=[N-] | 32.6 ± 2.2 | 31.2 ± 2.1 | 30.1 ± 2.1 | 29.1 ± 2 | 28.1 ± 1.9 | 27.3 ± 1.9 |
| C1CCCCC1 [cyclohexane] + CCCCn1cc[n+](C)c1.N#CN=C=[N-] | 25.8 ± 1.8 | 25 ± 1.7 | 24.3 ± 1.7 | 23.7 ± 1.6 | 23.1 ± 1.6 | 22.6 ± 1.5 |
| C1=CCCCC1 [cyclohexene] + CCCCn1cc[n+](C)c1.N#CN=C=[N-] | 11.4 ± 0.8 | 11.4 ± 0.8 | 11.3 ± 0.8 | 11.3 ± 0.8 | 11.3 ± 0.8 | 11.3 ± 0.8 |
| C1CCCCCCC1 [cyclooctane] + CCCCn1cc[n+](C)c1.N#CN=C=[N-] | 42.4 ± 2.9 | 40.4 ± 2.8 | 38.6 ± 2.6 | 37.1 ± 2.5 | 35.8 ± 2.4 | 34.5 ± 2.4 |
| C1CCCC1 [cyclopentane] + CCCCn1cc[n+](C)c1.N#CN=C=[N-] | 17.4 ± 1.2 | 16.9 ± 1.2 | 16.3 ± 1.1 | 15.9 ± 1.1 | 15.5 ± 1.1 | 15.1 ± 1 |
| CCCCCCCCCC [decane] + CCCCn1cc[n+](C)c1.N#CN=C=[N-] | 314 ± 22 | 285 ± 20 | 260 ± 18 | 239 ± 16 | 221 ± 15 | 205 ± 14 |
| CCOCC [diethyl ether] + CCCCn1cc[n+](C)c1.N#CN=C=[N-] | 6.88 ± 0.47 | 7.11 ± 0.48 | 7.32 ± 0.5 | 7.53 ± 0.51 | 7.74 ± 0.53 | 7.95 ± 0.54 |
| CC(C)OC(C)C [diisopropyl ether] + CCCCn1cc[n+](C)c1.N#CN=C=[N-] | 20.6 ± 1.4 | 20.9 ± 1.4 | 21.2 ± 1.4 | 21.5 ± 1.5 | 21.8 ± 1.5 | 22 ± 1.5 |
| CCCOCCC [dipropyl ether] + CCCCn1cc[n+](C)c1.N#CN=C=[N-] | 20.4 ± 1.4 | 20.5 ± 1.4 | 20.5 ± 1.4 | 20.5 ± 1.4 | 20.5 ± 1.4 | 20.6 ± 1.4 |
